What was measured:
Type in all cases: in vivo
[1] = test system: soybean (Glycine max Merr.): GLXMA; experiment: Test Example 1 pre-emergence herbicidal activity, GLXMA; details: visually observed 20th to 23rd day after application
From the text: (§1) Upland field soil was put into a 1/170,000 ha pot, and seeds of various plants {1. barnyardgrass (Echinochloa crus-galli L.): ECHCG, 2. crabgrass (Digitaria sanguinalis L.): DIGSA, 3. green foxtail (Setaria viridis L.): SETVI, 4. redroot pigweed (Amaranthus retroflexus L.): AMARE, 5. prickly sida (Sida spinosa L.): SEDSP, 6. velvetleaf (Abutilon theophrasti): ABUTH, 7. common cocklebur (Xanthium strumarium L.): XANST, 8. rice (Oryza sativa L.): ORYSA, 9. wheat (Triticum aestivum L.): TRZAX, 10. corn (Zea mays L.): ZEAMX, 11. soybean (Glycine max Merr.): GLXMA} were sown. Then, one day after the sowing, a wettable powder or emulsifiable concentrate having the compound of the present invention formulated in accordance with a usual formulation method, was weighed so that the active ingredient would be a predetermined amount and diluted with water in an amount of 500 L/ha. The herbicide adjusted was applied by a small size sprayer for preemergence treatment. On the 20th to 23rd day after the application of the herbicide, the growth of the respective plants was visually observed, and the herbicidal effects were evaluated by growth controlling degrees (%) ranging from 0 (equivalent to the untreated control) to 100 (complete kill), whereby the results shown in Table 4, were obtained. Compound Nos. in Table 4 correspond to Compound Nos. in Table 1 and 2 given hereinbefore.

[2] = test system: rice (Oryza sativa L.), ORYSA; experiment: Test Example 2 post-emergence (foliage treatment) herbicidal activity, ORYSA; details: 63 g a.i./ha
From the text: (§2) Upland field soil was put into a 1/170,000 ha pot, and seeds of various plants were sown. Then, when the plants reached predetermined leaf stages {1. barnyardgrass (Echinochloa crus-galli L.), ECHCG: 1.1-2.1 leaf stage, 2. crabgrass (Digitaria sanguinalis L.), DIGSA: 1.0-2.0 leaf stage, 3. green foxtail (Setaria viridis L.), SETVI: 1.0-2.2 leaf stage, 4. redroot pigweed (Amaranthus retroflexus L.), AMARE: 0.1-1.5 leaf stage, 5. prickly sida (Sida spinosa L.), SIDSP: 0.1-0.6 leaf stage, 6. velvetleaf (Abutilon theophrasti), ABUTH: 0.1-0.6 leaf stage, 7. common cocklebur (Xanthium strumarium L.), XANST: 0.1 leaf stage, 8. rice (Oryza sativa L.), ORYSA; 1.0-2 leaf stage, 9. wheat (Triticum aestivum L.), TRZAX: 2.3-3.5 leaf stage, 10. corn (Zea mays L.), ZEAMXN 2.1-2.6 leaf stage, 11. soybean (Glycine max Merr.), GLXMA: primary leaf stage}, a wettable powder or emulsifiable concentrate having the compound of the present invention formulated in accordance with a usual formulation method, was weighed so that the active ingredient would be a predetermined amount, and diluted with water in an amount of 500 L/ha. To the diluted solution, 0.1% (v/v) of an agricultural spreader was added. The herbicide adjusted was applied by a small size sprayer for foliage treatment. On the 20th to 23rd day after the application of the herbicide, the growth of the respective plants was visually observed, and the herbicidal effects were evaluated by growth controlling degrees (%) ranging from 0 (equivalent to the untreated control) to 100 (complete kill), whereby the results shown in Table 5, were obtained. Compound Nos. in Table 5 correspond to Compound Nos. in Table 1 and 2 given hereinbefore.

[3] = test system: green foxtail (Setaria viridis L.), SETVI; experiment: Test Example 2 post-emergence (foliage treatment) herbicidal activity, SETVI; details: 63 g a.i./ha
From the text: as §2

[4] = test system: velvetleaf (Abutilon theophrasti), ABUTH; experiment: Test Example 2 post-emergence (foliage treatment) herbicidal activity, ABUTH; details: 63 g a.i./ha
From the text: as §2

[5] = test system: redroot pigweed (Amaranthus retroflexus L.): AMARE; experiment: Test Example 1 pre-emergence herbicidal activity, AMARE; details: Rate 63 g a.i./ha, visually observed 20th to 23rd day after application
From the text: as §1

[6] = test system: rice (Oryza sativa L.): ORYSA; experiment: Test Example 1 pre-emergence herbicidal activity, ORYSA; details: visually observed 20th to 23rd day after application
From the text: as §1

[7] = test system: barnyardgrass (Echinochloa crus-galli L.), ECHCG; experiment: Test Example 2 post-emergence (foliage treatment) herbicidal activity, ECHCG; details: 63 g a.i./ha
From the text: as §2

[8] = test system: corn (Zea mays L.): ZEAMX; experiment: Test Example 1 pre-emergence herbicidal activity, ZEAMX; details: visually observed 20th to 23rd day after application
From the text: as §1

[9] = test system: wheat (Triticum aestivum L.): TRZAX; experiment: Test Example 1 pre-emergence herbicidal activity, TRZAX; details: visually observed 20th to 23rd day after application
From the text: as §1

[10] = test system: soybean (Glycine max Merr.), GLXMA; experiment: Test Example 2 post-emergence (foliage treatment) herbicidal activity, GLXMA; details: 63 g a.i./ha
From the text: as §2

[11] = test system: redroot pigweed (Amaranthus retroflexus L.), AMARE; experiment: Test Example 2 post-emergence (foliage treatment) herbicidal activity, AMARE; details: 63 g a.i./ha
From the text: as §2

[12] = test system: barnyardgrass (Echinochloa crus-galli L.): ECHCG; experiment: Test Example 1 pre-emergence herbicidal activity, ECHCG; details: visually observed 20th to 23rd day after application
From the text: as §1

[13] = test system: corn (Zea mays L.), ZEAMX; experiment: Test Example 2 post-emergence (foliage treatment) herbicidal activity, ZEAMX; details: 63 g a.i./ha
From the text: as §2

[14] = test system: wheat (Triticum aestivum L.), TRZAX; experiment: Test Example 2 post-emergence (foliage treatment) herbicidal activity, TRZAX; details: 63 g a.i./ha
From the text: as §2

[15] = test system: prickly sida (Sida spinosa L.): SEDSP; experiment: Test Example 1 pre-emergence herbicidal activity, SIDSP; details: visually observed 20th to 23rd day after application
From the text: as §1

[16] = test system: crabgrass (Digitaria sanguinalis L.): DIGSA; experiment: Test Example 1 pre-emergence herbicidal activity, DIGSA; details: visually observed 20th to 23rd day after application
From the text: as §1

[17] = test system: velvetleaf (Abutilon theophrasti): ABUTH; experiment: Test Example 1 pre-emergence herbicidal activity, ABUTH; details: visually observed 20th to 23rd day after application
From the text: as §1

[18] = test system: crabgrass (Digitaria sanguinalis L.), DIGSA; experiment: Test Example 2 post-emergence (foliage treatment) herbicidal activity, DIGSA; details: 63 g a.i./ha
From the text: as §2

[19] = test system: green foxtail (Setaria viridis L.): SETVI; experiment: Test Example 1 pre-emergence herbicidal activity, SETVI; details: visually observed 20th to 23rd day after application
From the text: as §1

Compound	Pre-emergence Herbicidal Activity GLXMA (growth controlling degree) ([1]; Rate 63 g a.i./ha)	growth controlling degree, ORYSA [2]	growth controlling degree, SETVI [3]	growth controlling degree, ABUTH [4]	Pre-emergence Herbicidal Activity AMARE (growth controlling degree) [5]	Pre-emergence Herbicidal Activity ORYSA (growth controlling degree) ([6]; Rate 63 g a.i./ha)	growth controlling degree, ECHCO [7]	Pre-emergence Herbicidal Activity ZEAMX (growth controlling degree) ([8]; Rate 63 g a.i./ha)	Pre-emergence Herbicidal Activity TRZAX (growth controlling degree) ([9]; Rate 63 g a.i./ha)	growth controlling degree, GLXMA [10]	growth controlling degree, AMARE [11]	Pre-emergence Herbicidal Activity ECHCG (growth controlling degree) ([12]; Rate 63 g a.i./ha)	growth controlling degree, ZEAMX [13]	growth controlling degree, TRZAX [14]	Pre-emergence Herbicidal Activity SIDSP (growth controlling degree) ([15]; Rate 63 g a.i./ha)	Pre-emergence Herbicidal Activity DIGSP (growth controlling degree) ([16]; Rate 63 g a.i./ha)	Pre-emergence Herbicidal Activity ABUTH (growth controlling degree) ([17]; Rate 63 g a.i./ha)	growth controlling degree, DIGSP [18]	Pre-emergence Herbicidal Activity SETVI (growth controlling degree) ([19]; Rate 63 g a.i./ha)	other results
COc1c(Cl)cc(F)c(-c2nn(C)c(OC(F)F)c2Cl)c1NC(=O)C(C)(C)OC(C)=O [Compound 1-44]	0%	50%	80%	100%	100%	10%	50%	0%	10%	40%	100%	10%	10%	20%	100%	100%	60%	60%	20%	–
COc1c(Cl)cc(F)c(-c2nn(C)c(OC(F)F)c2Cl)c1NC(=O)c1cccc(C(F)(F)F)c1 [Compound 1-262]	0%	30%	80%	100%	100%	10%	60%	0%	0%	50%	100%	0%	40%	30%	30%	30%	20%	40%	30%	–
COc1c(Cl)cc(F)c(-c2nn(C)c(OC(F)F)c2Cl)c1NC(=O)C1CC1 [Compound 1-264]	0%	80%	100%	100%	100%	50%	80%	0%	20%	70%	100%	100%	50%	40%	100%	100%	80%	100%	60%	–
CCOC(=O)C(C)Nc1c(OC)c(Cl)cc(F)c1-c1nn(C)c(OC(F)F)c1Cl (centres unmarked) [Compound 1-76]	0%	80%	80%	100%	100%	10%	100%	0%	0%	70%	100%	60%	90%	40%	60%	100%	40%	70%	60%	–
COc1c(Cl)cc(F)c(-c2nn(C)c(OC(F)F)c2Cl)c1NC(=O)c1ccc(F)cc1 [Compound 1-263]	10%	70%	100%	100%	100%	40%	98%	0%	30%	50%	100%	90%	60%	30%	100%	98%	100%	98%	100%	–
COc1c(Cl)cc(F)c(-c2nn(C)c(OC(F)F)c2Cl)c1N(C=O)CCOc1ccccc1 [Compound 1-43]	–	30%	70%	100%	–	–	40%	–	–	40%	100%	–	10%	10%	–	–	–	20%	–	Pre-emergence Herbicidal Activity GLXMA (growth controlling degree) ([1]; Rate 125 g a.i./ha): 0%; Pre-emergence Herbicidal Activity ORYSA (growth controlling degree) ([6]; Rate 125 g a.i./ha): 10%; Pre-emergence Herbicidal Activity ZEAMX (growth controlling degree) ([8]; Rate 125 g a.i./ha): 0%; Pre-emergence Herbicidal Activity TRZAX (growth controlling degree) ([9]; Rate 125 g a.i./ha): 0%; Pre-emergence Herbicidal Activity ECHCG (growth controlling degree) ([12]; Rate 125 g a.i./ha): 0%; Pre-emergence Herbicidal Activity SIDSP (growth controlling degree) ([15]; Rate 125 g a.i./ha): 0%; Pre-emergence Herbicidal Activity DIGSP (growth controlling degree) ([16]; Rate 125 g a.i./ha): 10%; Pre-emergence Herbicidal Activity ABUTH (growth controlling degree) ([17]; Rate 125 g a.i./ha): 0%; Pre-emergence Herbicidal Activity SETVI (growth controlling degree) ([19]; Rate 125 g a.i./ha): 0%
